According to patent US9993494B2, “Compositions and methods for treating fibrotic disease” (eFFECTOR Therapeutics, Inc., priority 2014, dated 2018):

Test system: normal human lung fibroblasts
Assay: Ribosomal profiling: translational efficiency in TGFβ-treated fibroblasts
Type: cell-based
Conditions: TGFβ-treated fibroblasts
Description: Ribosomal profiling allows for measurement of changes in transcription and translation on a genome-wide basis accompanying TGFβ-dependent transformation of fibroblasts to myofibroblasts. Ribosomal profiles of the TGFβ-treated fibroblasts from Example 1 (about 6×10^6 cells/10 cm plate) were prepared and analyzed for changes in translational efficiencies with respect to potential disease-associated cellular changes accompanying this TGFβ-induced transformation.
Briefly, cells were washed with cold PBS supplemented with cycloheximide and lysed with 1× mammalian cell lysis buffer for 10 minutes on ice. Lysates were clarified by centrifugation for 10 minutes at 14,000 rpm and supernatants were collected. Cell lysates were processed to generate ribosomal protected fragments and total mRNA according to the instructions included with the ARTseq Ribosome Profiling Kit (Illumina, San Diego, Calif.). Sequencing of total RNA (RNA) and of ribosome-protected fragments of RNA (RPF) was carried out using RNA-Seq methodology according to the manufacturer's instructions (Illumina). To analyze the ribosomal profiles, RNA-Seq reads were processed with tools from the FASTX-Toolkit (fastq_quality_trimmer, fastx_clipper and fastx_trimmer). Unprocessed and processed reads were evaluated for a variety of quality measures using FastQC, and processed reads were mapped to the human genome using TopHat (see, e.g., Trapnell et al., Bioinformatics 25:1105, 2009). Gene-by-gene assessment of the number of fragments strictly and uniquely mapping to the coding region of each gene was conducted using HTSeq-count, a component of the HTSeq package. […] Genes with low counts in either RPF or RNA were excluded from differential analyses. Pathway and network analyses of differential data were conducted using Ingenuity Pathway Analysis (IPA).

## Cc1ccc(=O)n(-c2ccccc2)c1 [pirfenidone, 5-methyl-1-phenylpyridin-2-one]
ENSG00000125967
  renormalizing the translational profile of NECAB3: − (− = <0.9)
ENSG00000127184
  renormalizing the translational profile of COX7C: − (− = <0.9)
ENSG00000128342
  renormalizing the translational profile of LIF: − (− = <0.9)
ENSG00000129422
  renormalizing the translational profile of MTUS1: ++ (++ = 1.5 to 2.0)
ENSG00000129675
  renormalizing the translational profile of ARHGEF6: − (− = <0.9)
ENSG00000130255
  renormalizing the translational profile of RPL36: + (+ = 0.9 to 1.5)
ENSG00000130513
  renormalizing the translational profile of GDF15: − (− = <0.9)
ENSG00000130707
  renormalizing the translational profile of ASS1: − (− = <0.9)
ENSG00000130741
  renormalizing the translational profile of EIF2S3: − (− = <0.9)
ENSG00000131469
  renormalizing the translational profile of RPL27: − (− = <0.9)
ENSG00000132031
  renormalizing the translational profile of MATN3: − (− = <0.9)
ENSG00000132170
  renormalizing the translational profile of PPARG: +++ (+++ = >2.0)
ENSG00000132510
  renormalizing the translational profile of KDM6B: − (− = <0.9)
ENSG00000133321
  renormalizing the translational profile of RARRES3: − (− = <0.9)
ENSG00000134897
  renormalizing the translational profile of BIVM: − (− = <0.9)
ENSG00000135390
  renormalizing the translational profile of ATP5G2: + (+ = 0.9 to 1.5)
ENSG00000135480
  renormalizing the translational profile of KRT7: ++ (++ = 1.5 to 2.0)
ENSG00000135486
  renormalizing the translational profile of HNRNPA1: − (− = <0.9)
ENSG00000136244
  renormalizing the translational profile of IL6: − (− = <0.9)
ENSG00000136942
  renormalizing the translational profile of RPL35: − (− = <0.9)
ENSG00000136999
  renormalizing the translational profile of NOV: − (− = <0.9)
ENSG00000137331
  renormalizing the translational profile of IER3: − (− = <0.9)
ENSG00000137628
  renormalizing the translational profile of DDX60: − (− = <0.9)
ENSG00000137818
  renormalizing the translational profile of RPLP1: + (+ = 0.9 to 1.5)
ENSG00000137819
  renormalizing the translational profile of PAQR5: − (− = <0.9)
ENSG00000138356
  renormalizing the translational profile of AOX1: − (− = <0.9)
ENSG00000138675
  renormalizing the translational profile of FGF5: + (+ = 0.9 to 1.5)
ENSG00000138735
  renormalizing the translational profile of PDE5A: − (− = <0.9)
ENSG00000139354
  renormalizing the translational profile of GAS2L3: − (− = <0.9)
ENSG00000139734
  renormalizing the translational profile of DIAPH3: ++ (++ = 1.5 to 2.0)
ENSG00000141140
  renormalizing the translational profile of MYO19: − (− = <0.9)
ENSG00000142541
  renormalizing the translational profile of RPL13A: + (+ = 0.9 to 1.5)
ENSG00000142676
  renormalizing the translational profile of RPL11: − (− = <0.9)
ENSG00000143632
  renormalizing the translational profile of ACTA1: + (+ = 0.9 to 1.5)
ENSG00000143850
  renormalizing the translational profile of PLEKHA6: − (− = <0.9)
ENSG00000144713
  renormalizing the translational profile of RPL32: − (− = <0.9)
ENSG00000145592
  renormalizing the translational profile of RPL37: + (+ = 0.9 to 1.5)
ENSG00000145741
  renormalizing the translational profile of BTF3: − (− = <0.9)
ENSG00000146066
  renormalizing the translational profile of HIGD2A: + (+ = 0.9 to 1.5)
ENSG00000146592
  renormalizing the translational profile of CREB5: + (+ = 0.9 to 1.5)
ENSG00000146966
  renormalizing the translational profile of DENND2A: − (− = <0.9)
ENSG00000147403
  renormalizing the translational profile of RPL10: + (+ = 0.9 to 1.5)
ENSG00000147677
  renormalizing the translational profile of EIF3H: − (− = <0.9)
ENSG00000148303
  renormalizing the translational profile of RPL7A: + (+ = 0.9 to 1.5)
ENSG00000149100
  renormalizing the translational profile of EIF3M: − (− = <0.9)
ENSG00000149806
  renormalizing the translational profile of FAU: − (− = <0.9)
ENSG00000150636
  renormalizing the translational profile of CCDC102B: ++ (++ = 1.5 to 2.0)
ENSG00000151474
  renormalizing the translational profile of FRMD4A: − (− = <0.9)
ENSG00000152413
  renormalizing the translational profile of HOMER1: − (− = <0.9)
ENSG00000152527
  renormalizing the translational profile of PLEKHH2: − (− = <0.9)
ENSG00000154122
  renormalizing the translational profile of ANKH: − (− = <0.9)
ENSG00000154262
  renormalizing the translational profile of ABCA6: − (− = <0.9)
ENSG00000154358
  renormalizing the translational profile of OBSCN: − (− = <0.9)
ENSG00000154736
  renormalizing the translational profile of ADAMTS5: − (− = <0.9)
ENSG00000155463
  renormalizing the translational profile of OXA1L: − (− = <0.9)
ENSG00000155621
  renormalizing the translational profile of C9orf85: − (− = <0.9)
ENSG00000156482
  renormalizing the translational profile of RPL30: + (+ = 0.9 to 1.5)
ENSG00000156508
  renormalizing the translational profile of EEF1A1: + (+ = 0.9 to 1.5)
ENSG00000157168
  renormalizing the translational profile of NRG1: − (− = <0.9)
ENSG00000158859
  renormalizing the translational profile of ADAMTS4: − (− = <0.9)
ENSG00000161016
  renormalizing the translational profile of RPL8: − (− = <0.9)
ENSG00000161970
  renormalizing the translational profile of RPL26: + (+ = 0.9 to 1.5)
ENSG00000162244
  renormalizing the translational profile of RPL29: − (− = <0.9)
ENSG00000162545
  renormalizing the translational profile of CAMK2N1: − (− = <0.9)
ENSG00000163453
  renormalizing the translational profile of IGFBP7: − (− = <0.9)
ENSG00000163584
  renormalizing the translational profile of RPL22L1: + (+ = 0.9 to 1.5)
